Assay results published in ChEMBL document CHEMBL6096692, “Discovery of 2(1H)-Quinoxalinone Derivatives as Potent and Selective MAT2A Inhibitors for the Treatment of MTAP-Deficient Cancers” (J Med Chem, 2025).
pIC50: −log10 of the molar value. ≈ marks a conversion by molar mass, not a printed value. Calls of active or inactive are those of the source. The calls are words filed in the database; no cut-off is given here.

Assays:
MCF7 = assay: Antiproliferative activity against MTAP null human MCF7 cells assessed as inhibition of cell viability measured for 96 hrs by SRB assay; assay type: functional, cell-based
NCI-H838 = assay: Antiproliferative activity against MTAP null human NCI-H838 cells assessed as inhibition of cell viability measured for 96 hrs by SRB assay; assay type: functional, cell-based
NCI-H1437 = assay: Antiproliferative activity against MTAP null human NCI-H1437 cells assessed as inhibition of cell viability measured for 96 hrs by SRB assay; assay type: functional, cell-based
[1] = Selectivity index, ratio of IC50 for antiproliferative activity against MTAP knockout human SF-126 cells to IC50 for antiproliferative activity against human SF-126 cells harboring wild type MTAP; assay type: functional
SF-126 = assay: Induction of DNA damage in MTAP knockout human SF-126 cells assessed as increase in gammaH2AX level at 0.1 to 10 uM measured for 96 hrs by Western blot analysis; assay type: functional, cell-based; conditions: dose 0.1-10 µM
[2] = Kinetic solubility of compound in phosphate buffer at pH 7.4; assay type: physicochemical; conditions: read-out: Kinetic_solubility
Cytochrome P450 1A2 = molecular target: T1, Cytochrome P450 1A2 (Homo sapiens, UniProt P05177); assay: Inhibition of CYP1A2 in human liver microsomes using phenacetin as substrate incubated for 10 mins in presence of NADPH by LC-MS/MS analysis; assay type: ADME, Microsome
T1 sequence (P05177 whole entry): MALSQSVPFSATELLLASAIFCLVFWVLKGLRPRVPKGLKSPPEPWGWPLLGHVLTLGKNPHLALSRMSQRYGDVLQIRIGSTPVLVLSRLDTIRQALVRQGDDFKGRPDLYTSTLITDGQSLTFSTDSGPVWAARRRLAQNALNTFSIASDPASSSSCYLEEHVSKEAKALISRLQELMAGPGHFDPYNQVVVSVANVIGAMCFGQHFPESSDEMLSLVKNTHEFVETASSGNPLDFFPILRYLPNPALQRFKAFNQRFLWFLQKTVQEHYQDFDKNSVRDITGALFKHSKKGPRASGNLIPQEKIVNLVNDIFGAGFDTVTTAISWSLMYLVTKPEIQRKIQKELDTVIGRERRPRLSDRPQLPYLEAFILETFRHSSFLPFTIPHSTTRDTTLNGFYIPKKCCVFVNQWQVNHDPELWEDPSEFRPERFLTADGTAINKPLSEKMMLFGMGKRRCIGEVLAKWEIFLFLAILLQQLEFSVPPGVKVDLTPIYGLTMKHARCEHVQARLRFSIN

Cytochrome P450 2C9 = Cytochrome P450 2C9 (Homo sapiens, UniProt P11712); assay: Inhibition of CYP2C9 in human liver microsomes using diclofenac as substrate incubated for 10 mins in presence of NADPH by LC-MS/MS analysis; assay type: ADME, Microsome
[3] = Cmax in male ICR mouse at 10 mg/kg, po measured upto 36 hrs by LC-MS/MS analysis; assay type: ADME, organism-based; conditions: in vivo
[4] = Toxicity in ICR mouse at 500 mg/kg, po measured for 7 days; assay type: organism-based; conditions: in vivo, 168 h, time 7 day
B16-F10 = assay: Antitumor activity against MTAP-knockout mouse B16-F10 cells implanted in mouse assessed as reduction in SAM level in plasma at 30 to 60 mg/kg, po administered for 10 days and measured after 12 hrs; assay type: functional, organism-based; conditions: dose 30-60 mg/kg, time 10.5 day
MIA PaCa-2 = assay: Antitumor activity against MTAP null human MIA PaCa-2 cells xenografted in mouse assessed as tumor growth inhibition at 60 mg/kg, po measured after 28 days; assay type: functional, organism-based; conditions: time 28.0 day
Daoy [5] = assay: Antitumor activity against human Daoy cells xenografted in mouse assessed as tumor growth inhibition at 30 mg/kg, po measured after 28 days; assay type: functional, organism-based; conditions: time 28.0 day
Daoy [6] = assay: Antitumor activity against human Daoy cells xenografted in mouse assessed as reduction in SDMA level in tumor at 30 mg/kg, po measured after 28 days; assay type: functional, organism-based; conditions: time 28.0 day

Cytochrome P450 2C9, sequence (P11712 whole entry): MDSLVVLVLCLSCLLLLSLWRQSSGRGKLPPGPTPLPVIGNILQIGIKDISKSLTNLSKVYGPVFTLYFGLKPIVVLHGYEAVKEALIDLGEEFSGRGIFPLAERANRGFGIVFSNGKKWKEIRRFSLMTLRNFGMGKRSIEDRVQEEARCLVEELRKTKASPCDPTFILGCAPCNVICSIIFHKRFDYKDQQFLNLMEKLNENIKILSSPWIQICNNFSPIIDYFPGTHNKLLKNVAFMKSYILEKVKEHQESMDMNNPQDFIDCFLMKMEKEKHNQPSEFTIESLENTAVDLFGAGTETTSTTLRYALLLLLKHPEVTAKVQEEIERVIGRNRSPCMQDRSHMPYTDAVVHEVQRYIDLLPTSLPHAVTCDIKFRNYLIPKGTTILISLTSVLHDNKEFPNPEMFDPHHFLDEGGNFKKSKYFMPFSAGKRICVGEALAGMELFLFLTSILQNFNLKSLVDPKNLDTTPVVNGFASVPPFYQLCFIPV

solubility kinetic [2]: 3.11 µM (≈ 1.43 µg/mL)
pIC50 (Cytochrome P450 1A2): < 4.52
pIC50 (Cytochrome P450 2C9): 4.90
Cmax [3]: 2.6 µg/mL
Compound: Cn1cnc2ccc(-c3nc4ccc(C5CC5)cc4n(-c4ccc(OC(F)F)cc4)c3=O)cc21
Activity (MCF7): Active
Activity (NCI-H838): Active
Activity (NCI-H1437): Active
Ratio IC50 [1]: >57
Activity (SF-126): Active
Activity [4]: Non-toxic
Activity (B16-F10): Active
TGI (MIA PaCa-2): Active
TGI (Daoy [5]): Active
Activity (Daoy [6]): Active
